Test results: patent publication US20040255720A1, “Metal graphite material and production method thereof” (AISIN SEIKI KABUSHIKI KAISHA, priority 2003, published 2004)
Read-outs that look alike come from different tables or passages of the source. One block for each compound: values may come before it.

Key:
[1] = Solubilities of each carboxylic acid in water
[2] = Solubility of each carboxylic acid in methanol; conditions: for solubility in methanol (Max): temperature not given
[3] = Solubility of carboxylic acid copper in organic solvents; assay type: physicochemical
[4] = 20° C.
[5] = Solubility of each carboxylic acid in 1-propanol; assay type: physicochemical; conditions: 20° C.
[6] = Thermal decomposition (temperature vs weight, FIG. 3); assay type: physicochemical
Experimental: FIG. 3 illustrates a graph indicating a relationship between temperature and weigh of glycerin and diglycerin.
In addition, it is preferable that the aforementioned chemicals having only a function as a binder is thermally decomposed in carbon dioxide and water when the molded body of the graphite particles is calcinated at 250-350° C. temperature, then such carbon dioxide and water evaporates into the air, in other word, no residue remains due to the thermal decomposition reaction. In such point of view, it is considered that glycerin and diglycerin as glycerin derivative being thermally decomposed at below 350° C. and having a predetermined viscosity are preferable chemicals. Viscosity of the glycerin is 1500 mPa.s at 20° C., and the thermal decomposition starts at 150° C. and finishes at 250° C. Viscosity of the diglycerin is 120 mPa.s at 20° C., and the thermal decomposition starts at 250° C. and finishes at 320° C. In response to an appropriate thickness of the coating film, glycerin or diglycerin can be diluted with methanol and mixed into the solution of carboxylic acid copper. FIG. 3 indicates relationships between temperature and weight of glycerin and diglycerin. Structure 1 indicates a molecular structure of glycerin, and structure 2 indicates a molecular structure of diglycerin. [drawing 1]

[7] = Viscosity of binder chemicals; assay type: physicochemical; conditions: 20° C.
[8] = Solubility of each carboxylic acid in 1-butanol; assay type: physicochemical; conditions: 20° C.

SMILES: O=C(O)CC(=O)O [malonic acid]
solubility in water ([1]; 30° C.): 63 g is dissolved in saturated g is dissolved in saturated solution 100 g

SMILES: CCCCCCCCCCCC(=O)O.[Cu] [dodecanoic acid copper]
solubility in the methanol compared with butanoic acid copper [3]: lower

SMILES: [Cl][Cu][Cl] [copper chloride, cupric chloride]
Solubility of copper chloride ([4]; solvent 1-butanol): 15.4 g dissolved in saturated solution 100 g at 20 °C
Solubility of copper chloride ([4]; solvent 1-propanol): 19.7 g dissolved in saturated solution 100 g at 20 °C
Solubility of copper chloride ([4]; solvent methanol): 37 g dissolved in saturated solution 100 g at 20 °C
Solubility of copper chloride ([4]; solvent water): 42.3 g dissolved in saturated solution 100 g at 20 °C

SMILES: O=C(O)c1ccccc1O [salicylic acid]
solubility in 1-propanol [5]: 22.3 g is dissolved in saturated g is dissolved in saturated solution 100 cc

SMILES: O=C(O)c1ccc(C(=O)O)cc1 [terephthalic acid]
solubility in 1-propanol [5]: 4.4 g is dissolved in saturated g is dissolved in saturated solution 100 cc
solubility in methanol (Max) [2]: Max 16.9 g is dissolved in g is dissolved in methanol 100 g

SMILES: O=C(O)C(O)c1ccccc1 (stereo not drawn) [dl mandelic acid]
solubility in water ([1]; 30° C.): 37.5 g is dissolved in water 100 g

SMILES: O=C(O)CCCC(=O)O [glutaric acid]
solubility in water ([1]; 30° C.): 63 g is dissolved in saturated g is dissolved in saturated solution 100 g
solubility in methanol ([2]; 20° C.): 20 wt % dissolved at 20 °C

SMILES: OCC(O)COCC(O)CO (stereo not drawn) [diglycerin]
thermal decomposition finishes at (perfectly decomposed into CO2 and H2O) [6]: 320 °C
Viscosity [7]: 120 mPa.s

SMILES: CCCCCCCCCCCC(=O)O [dodecanoic acid]
solubility in methanol ([2]; 20° C.): 120 g is dissolved in g is dissolved in methanol 100 g
solubility in 1-butanol [8]: 83 g is dissolved in solvent 100 g

SMILES: O=C(O)c1cccc(C(=O)O)c1 [isophthalic acid]
solubility in methanol (Max) [2]: Max 1.7 g is dissolved in g is dissolved in methanol 100 g

SMILES: O=C(O)c1ccccc1C(=O)O [phthalic acid]
solubility in 1-propanol [5]: 4.3 g is dissolved in saturated g is dissolved in saturated solution 100 cc
solubility in methanol (Max) [2]: Max 16.4 g is dissolved in g is dissolved in methanol 100 g

Now from value to compound, other results behind:

solubility in water ([1]; 30° C.): 88 g is dissolved in water 100 g at
SMILES: O=C(O)/C=C\C(=O)O [maleic acid]
solubility in methanol ([2]; 30° C.): 70 g is dissolved in g is dissolved in methanol 100 g

solubility in water ([1]; 20° C.): 20 wt % dissolved at 20 °C
solubility in methanol ([2]; 20° C.): 20 wt % dissolved at 20 °C
SMILES: C=CCC(C(=O)O)C(=O)O [allylic malonic acid]

solubility in water ([1]; 20° C.): 20 wt % dissolved at 20 °C
solubility in methanol ([2]; 20° C.): 20 wt % dissolved at 20 °C
SMILES: CC(=O)CCC(=O)O [levulinic acid]

solubility in water ([1]; 20° C.): 20 wt % dissolved at 20 °C
solubility in methanol ([2]; 20° C.): 20 wt % dissolved at 20 °C
SMILES: CC(=O)CC(=O)O [acetoacetic acid]

solubility in water ([1]; 20° C.): 20 wt % dissolved at 20 °C
SMILES: O=C(O)c1ccc(C(=O)O)c(C(=O)O)c1C(=O)O [mellophanic acid]

solubility in methanol ([2]; 20° C.): 20 wt % dissolved at 20 °C
SMILES: O=C(O)CCCCCCC(=O)O [suberic acid]

solubility in methanol ([2]; 20° C.): 20 wt % dissolved at 20 °C
SMILES: O=C(O)CCCCCCCC(=O)O [azelaic acid]

solubility in methanol ([2]; 20° C.): 20 wt % dissolved at 20 °C
SMILES: O=C(O)CCCCCC(=O)O [pimelic acid]

solubility in methanol ([2]; 20° C.): 20 wt % dissolved at 20 °C
SMILES: COc1ccc(C(=O)O)cc1 [anisic acid]

solubility in water [1]: Dissolved at arbitrary ratio
SMILES: C=C(C)C(=O)O [methacrylic acid]

solubility in 1-butanol [8]: 28.7 g is dissolved in solvent 100 g
SMILES: CCCCCCCCCCCCCC(=O)O [myristic acid]

thermal decomposition finishes at (perfectly decomposed into CO2 and H2O) [6]: 250 °C
Viscosity [7]: 1500 mPa.s
Viscosity ([7]; undiluted): 1500 centipoises
SMILES: OCC(O)CO [glycerin]

solubility in methanol ([2]; 20° C.): 20 wt % dissolved at 20 °C
SMILES: O=C(O)c1cc(C(=O)O)cc(C(=O)O)c1 [trimesic acid]

solubility in methanol ([2]; 20° C.): 20 wt % dissolved at 20 °C
SMILES: Cc1ccccc1C(=O)O [0-toluic acid]
